# From patent US20030017186A1, “Carboxylic acid fluorides as pesticides” (priority 1999, published 2003)
# Legend:
# [1] = test system: House longhorn beetle (Hylotrupes bajulus); test: Fumigation test in glass vessel, house longhorn beetles; type: in vivo; settings: HYLOBA beetles
# Description: (§1) b1) House longhorn beetle (Hylotrupes bajulus)=HYLOBA
# (§2) The test organisms, separated by species, were placed into a glass vessel measuring 30 cm×30 cm×60 cm, which was sealed with a glass lid so as to be airtight. The adults and the larvae of the mealworm beetle (Tenebrio molitor) and the broad-horned flour beetle (Gnathocerus cornutus) were placed into small glass vessels approximately 5 cm in diameter, which were closed with a gauze lid and in which they could freely move about. The larvae of the rice weevil had burrowed into seeds of grain. The wood pest larvae were inserted into small blocks of wood measuring 5 cm×2.5 cm×2 cm. The openings were sealed with wads of cotton wool. Only one each of the larvae of the house longhorn beetle (Hylotrupes bajulus) was inserted into a piece of wood, while 6-8 larvae of the common furniture beetle (Anobium punctatum) were inserted into each piece of wood.
# (§3) The respective gas was then introduced into the fumigation vessel through a gas line from a gas tank that contained the specified amount of gas. After a defined time period, the fumigation vessel was purged with compressed air. The discharged gas was purified by an attached gas scrubber.
# (§4) The beetles were observed until they died. This point was recorded for each species. The larvae of the wood pests as well as the larvae of the rice weevil (Sitophilus oryzae) had to be picked out of the wood or the grain to check their condition. If any of the animals were still alive, the wooden test blocks remaining in the vessel were fumigated again and were reexamined after the corresponding time span had elapsed. The same number of animals in the untreated control was also checked at each point.
# (§5) The vitality of the animals was checked at certain time intervals. The beetles could be observed through the fumigation vessel. This was also true for the larvae of the mealworm beetle and the broad-horned flour beetle. The wooden test blocks of the wood pest larvae were opened with hammer and chisel. Tweezers were used to pull the rice weevil larvae out of the grain seeds. The exact time intervals and the number of the evaluated pests were documented in the test results.
# [2] = test system: Broad-horned flour beetle (Gnathocerus cornutus); test: Fumigation test in glass vessel, broad-horned flour beetles; type: in vivo; settings: GNATCO beetles; Example 3; gas 45.8 g/m^3, 17.2° C. (1st fumigation), 45.4 g/m^3, 17.7° C. (2nd); 54% rel. air humidity
# Description: (§6) a3) Broad-horned flour beetle (Gnathocerus cornutus)=GNATCO
# as §2, §3, §4, §5
# [3] = test system: wood pests (house longhorn beetle, common furniture beetle); test: Fumigation test, wood pests; type: in vivo, Hylotrupes bajulus, Anobium punctatum
# Description: as §2, §3, §4, §5
# [4] = test system: House longhorn beetle (Hylotrupes bajulus) larvae; test: Fumigation test in glass vessel, house longhorn beetle larvae in wood blocks; type: in vivo; settings: HYLOBA larvae in wood blocks
# Description: as §1, §2, §3, §4, §5
# [5] = test system: Rice weevil (Sitophilus oryzae); test: Fumigation test in glass vessel, rice weevils; type: in vivo; settings: SITTOR beetles; Example 3; gas 45.8 g/m^3, 17.2° C. (1st fumigation), 45.4 g/m^3, 17.7° C. (2nd); 54% rel. air humidity
# Description: (§7) a2) Rice weevil (Sitophilus oryzae)=SITTOR
# as §2, §3, §4, §5
# [6] = test system: Mealworm beetle (Tenebrio molitor) larvae; test: Fumigation test in glass vessel, mealworm beetle larvae; type: in vivo; settings: TENEMO larvae; Example 3; gas 45.8 g/m^3, 17.2° C. (1st fumigation), 45.4 g/m^3, 17.7° C. (2nd); 54% rel. air humidity
# Description: (§8) a1) Mealworm beetle (Tenebrio molitor)=TENEMO
# as §2, §3, §4, §5
# [7] = test system: Common furniture beetle (Anobium punctatum) larvae; test: Fumigation test in glass vessel, common furniture beetle larvae in wood blocks; type: in vivo; settings: ANOBPU larvae in wood blocks
# Description: (§9) b2) Common furniture beetle (Anobium punctatum)=[…]
# as §2, §3, §4, §5
# [8] = test system: wood and storage pests; test: Fumigation test, wood and storage pests (overall statements); type: in vivo; settings: Conclusion of Examples 1-5
# Description: as §2, §3, §4, §5
# [9] = test system: Broad-horned flour beetle (Gnathocerus cornutus) larvae; test: Fumigation test in glass vessel, broad-horned flour beetle larvae; type: in vivo; settings: GNATCO larvae; Example 3; gas 45.8 g/m^3, 17.2° C. (1st fumigation), 45.4 g/m^3, 17.7° C. (2nd); 54% rel. air humidity
# Description: as §6, §2, §3, §4, §5
# [10] = test system: Common furniture beetle (Anobium punctatum); test: Fumigation test in glass vessel, common furniture beetles; type: in vivo; settings: ANOBPU beetles
# Description: as §9, §2, §3, §4, §5
# [11] = test system: Rice weevil (Sitophilus oryzae) larvae; test: Fumigation test in glass vessel, rice weevil larvae in grain seeds; type: in vivo; settings: SITTOR larvae in grain seeds; Example 3; gas 45.8 g/m^3, 17.2° C. (1st fumigation), 45.4 g/m^3, 17.7° C. (2nd); 54% rel. air humidity
# Description: as §7, §2, §3, §4, §5
# [12] = test system: Saw-toothed grain beetle (Oryzaephilus surinamensis); test: Fumigation test in glass vessel, saw-toothed grain beetles; type: in vivo; settings: ORYZSA beetles; Example 3; gas 45.8 g/m^3, 17.2° C. (1st fumigation), 45.4 g/m^3, 17.7° C. (2nd); 54% rel. air humidity
# Description: a4) Saw-toothed grain beetle (Oryzaephilus surinamensis)=ORYZSA
# as §2, §3, §4, §5
# [13] = test system: Mealworm beetle (Tenebrio molitor); test: Fumigation test in glass vessel, mealworm beetles; type: in vivo; settings: TENEMO beetles; Example 3; gas 45.8 g/m^3, 17.2° C. (1st fumigation), 45.4 g/m^3, 17.7° C. (2nd); 54% rel. air humidity
# Description: as §8, §2, §3, §4, §5
# [14] = Example 1, gas 54.8 g/m^3, 16° C. (1st fumigation), 58.0 g/m^3, 13° C. (2nd), 66% rel. air humidity
# [15] = Example 2, ventilator operation in vessel, gas 57.6 g/m^3, 20.6° C. (1st fumigation), 48.0 g/m^3, 21.5° C. (2nd)
smiles,measurement,setting,value
"O=C(F)C(F)(F)F [Trifluoroacetyl Fluoride, Trifluoroacetyl fluoride]","Number alive, 1 hr. after Start of Fumigation",[1]; [14],2
same,"Number alive, 3 hrs. after Start of Fumigation",[1]; [14],0
same,"Number dead, 1 hr. after Start of Fumigation",[1]; [14],4
same,"Number dead, 3 hrs. after Start of Fumigation",[1]; [14],6
same,"Number alive, 1 hr. after Start of Fumigation",[1]; [15],1
same,"Number alive, 12 hrs. after Start of Fumigation",[1]; [15],0
same,"Number dead, 1 hr. after Start of Fumigation",[1]; [15],5
same,"Number dead, 12 hrs. after Start of Fumigation",[1]; [15],6
same,"Number alive, 1 hr. after Start of Fumigation",[2],0
same,"Number dead, 1 hr. after Start of Fumigation",[2],15
same,Time after which the animals became very active,"[3]; Example 1, exposed beetles and larvae, gas 54.8 g/m^3, 16° C.",1 to 2 min
same,"Time after which all the beetles lay on their backs, only legs and feelers moving slightly","[3]; Example 1, exposed beetles, gas 54.8 g/m^3, 16° C.",about 10 minutes
same,Penetration of the wood to kill the larvae completely,"[3]; Example 1, larvae in wooden test blocks, within a time span of 48 hours",does not penetrate the wood sufficiently
same,Time after which larvae without wooden test blocks were dead,"[3]; Example 1, larvae without wooden test blocks, gas 54.8 g/m^3, 16° C.",approximately 1 hour
same,Effectiveness with respect to the larvae with ventilators,"[3]; Example 2, air circulation through ventilators, compared with Example 1",no improvement in the effectiveness
same,"Number alive, 24 hrs. after Start of Fumigation",[4]; [14],6
same,"Number alive, 48 hrs. after Start of Fumigation",[4]; [14],3
same,"Number dead, 24 hrs. after Start of Fumigation",[4]; [14],0
same,"Number dead, 48 hrs. after Start of Fumigation",[4]; [14],3
same,"Number alive, 12 hrs. after Start of Fumigation",[4]; [15],7
same,"Number alive, 24 hrs. after Start of Fumigation",[4]; [15],7
same,"Number alive, 48 hrs. after Start of Fumigation",[4]; [15],6
same,"Number dead, 12 hrs. after Start of Fumigation",[4]; [15],0
same,"Number dead, 24 hrs. after Start of Fumigation",[4]; [15],0
same,"Number dead, 48 hrs. after Start of Fumigation",[4]; [15],1
same,"Number alive, 1 hr. after Start of Fumigation",[5],0
same,"Number dead, 1 hr. after Start of Fumigation",[5],20
same,"Number alive, 1 hr. after Start of Fumigation",[6],0
same,"Number dead, 1 hr. after Start of Fumigation",[6],15
same,"Number alive, 24 hrs. after Start of Fumigation",[7]; [14],10
same,"Number alive, 48 hrs. after Start of Fumigation",[7]; [14],6
same,"Number dead, 24 hrs. after Start of Fumigation",[7]; [14],0
same,"Number dead, 48 hrs. after Start of Fumigation",[7]; [14],4
same,"Number alive, 12 hrs. after Start of Fumigation",[7]; [15],11
same,"Number alive, 24 hrs. after Start of Fumigation",[7]; [15],10
same,"Number alive, 48 hrs. after Start of Fumigation",[7]; [15],0
same,"Number dead, 12 hrs. after Start of Fumigation",[7]; [15],1
same,"Number dead, 24 hrs. after Start of Fumigation",[7]; [15],2
same,"Number dead, 48 hrs. after Start of Fumigation",[7]; [15],12
same,Effectiveness against exposed beetles and larvae,[8],very effective
same,"Number alive, 1 hr. after Start of Fumigation",[9],0
same,"Number dead, 1 hr. after Start of Fumigation",[9],15
same,"Number alive, 1 hr. after Start of Fumigation",[10]; [14],0
same,"Number dead, 1 hr. after Start of Fumigation",[10]; [14],6
same,"Number alive, 1 hr. after Start of Fumigation",[10]; [15],0
same,"Number dead, 1 hr. after Start of Fumigation",[10]; [15],6
same,"Number alive, 1 hr. after Start of Fumigation",[11],5
same,"Number alive, 3 hrs. after Start of Fumigation",[11],0
same,"Number dead, 1 hr. after Start of Fumigation",[11],15
same,"Number dead, 3 hrs. after Start of Fumigation",[11],20
same,"Number alive, 1 hr. after Start of Fumigation",[12],0
same,"Number dead, 1 hr. after Start of Fumigation",[12],15
same,"Number alive, 1 hr. after Start of Fumigation",[13],0
same,"Number dead, 1 hr. after Start of Fumigation",[13],15
